From ChEMBL document CHEMBL3526023 (Drug Metab Dispos, 2011)
One block for each molecule: values may come before it.

What was measured:
[1] = molecular target: T1, UDP-glucuronosyltransferase 2B7 (Homo sapiens, UniProt P16662); assay: Drug metabolism in non-diabetic human kidney microsomes assessed as UGT2B7-mediated mycophenolic acid phenolic 7-O-glucuronide formation per pmol protein by HPLC and LC-MS/MS method; type: ADME
T1 sequence (P16662 whole entry): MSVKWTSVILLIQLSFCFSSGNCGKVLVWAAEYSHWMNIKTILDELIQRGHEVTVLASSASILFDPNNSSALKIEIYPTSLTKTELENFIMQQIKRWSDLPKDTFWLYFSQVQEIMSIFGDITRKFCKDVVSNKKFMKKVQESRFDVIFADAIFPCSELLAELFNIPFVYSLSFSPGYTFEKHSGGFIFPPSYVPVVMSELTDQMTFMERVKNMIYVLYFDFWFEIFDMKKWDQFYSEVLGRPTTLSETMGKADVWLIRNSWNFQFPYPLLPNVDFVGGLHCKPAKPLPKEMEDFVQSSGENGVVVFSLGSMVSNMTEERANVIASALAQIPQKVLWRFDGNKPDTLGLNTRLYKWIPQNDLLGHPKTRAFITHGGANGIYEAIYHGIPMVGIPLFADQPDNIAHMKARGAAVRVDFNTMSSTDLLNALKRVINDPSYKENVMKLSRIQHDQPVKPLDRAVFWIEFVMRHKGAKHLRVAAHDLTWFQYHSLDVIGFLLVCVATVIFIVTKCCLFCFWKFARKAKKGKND

[2] = molecular target: T1, UDP-glucuronosyltransferase 2B7; assay: Uncompetitive substrate inhibition of UGT2B7 in diabetic human liver microsomes assessed as reduction in enzyme-mediated mycophenolic acid phenolic 7-O-glucuronide formation by HPLC and LC-MS/MS method; type: ADME
[3] = molecular target: T1, UDP-glucuronosyltransferase 2B7; assay: Drug metabolism in diabetic human liver microsomes assessed as UGT2B7-mediated mycophenolic acid phenolic 7-O-glucuronide formation per pmol protein by HPLC and LC-MS/MS method; type: ADME
[4] = molecular target: T1, UDP-glucuronosyltransferase 2B7; assay: Ratio of Vmax to Km in non-diabetic human liver microsomes assessed as UGT2B7-mediated mycophenolic acid phenolic 7-O-glucuronide formation per pmol protein by HPLC and LC-MS/MS method; type: ADME
[5] = molecular target: T1, UDP-glucuronosyltransferase 2B7; assay: Drug metabolism in diabetic human liver microsomes assessed as UGT2B7-mediated mycophenolic acid acyl glucuronide formation per pmol protein by HPLC and LC-MS/MS method; type: ADME
[6] = molecular target: T1, UDP-glucuronosyltransferase 2B7; assay: Ratio of Vmax to Km in diabetic human kidney microsomes assessed as UGT2B7-mediated mycophenolic acid acyl glucuronide formation per pmol protein by HPLC and LC-MS/MS method; type: ADME
[7] = molecular target: T1, UDP-glucuronosyltransferase 2B7; assay: Uncompetitive substrate inhibition of UGT2B7 in diabetic human liver microsomes assessed as reduction in enzyme-mediated mycophenolic acid acyl glucuronide formation by HPLC and LC-MS/MS method; type: ADME
[8] = molecular target: T1, UDP-glucuronosyltransferase 2B7; assay: Drug metabolism in non-diabetic human liver microsomes assessed as UGT2B7-mediated mycophenolic acid phenolic 7-O-glucuronide formation per pmol protein by HPLC and LC-MS/MS method; type: ADME
[9] = molecular target: T1, UDP-glucuronosyltransferase 2B7; assay: Uncompetitive substrate inhibition of UGT2B7 in non-diabetic human liver microsomes assessed as reduction in enzyme-mediated mycophenolic acid phenolic 7-O-glucuronide formation by HPLC and LC-MS/MS method; type: ADME
[10] = molecular target: T1, UDP-glucuronosyltransferase 2B7; assay: Ratio of Vmax to Km in diabetic human liver microsomes assessed as UGT2B7-mediated mycophenolic acid phenolic 7-O-glucuronide formation per pmol protein by HPLC and LC-MS/MS method; type: ADME
[11] = molecular target: T1, UDP-glucuronosyltransferase 2B7; assay: Uncompetitive substrate inhibition of UGT2B7 in non-diabetic human kidney microsomes assessed as reduction in enzyme-mediated mycophenolic acid acyl glucuronide formation by HPLC and LC-MS/MS method; type: ADME
[12] = molecular target: T1, UDP-glucuronosyltransferase 2B7; assay: Drug metabolism in diabetic human kidney microsomes assessed as UGT2B7-mediated mycophenolic acid acyl glucuronide formation per pmol protein by HPLC and LC-MS/MS method; type: ADME
[13] = molecular target: T1, UDP-glucuronosyltransferase 2B7; assay: Ratio of Vmax to Km in diabetic human liver microsomes assessed as UGT2B7-mediated mycophenolic acid acyl glucuronide formation per pmol protein by HPLC and LC-MS/MS method; type: ADME
[14] = molecular target: T1, UDP-glucuronosyltransferase 2B7; assay: Uncompetitive substrate inhibition of UGT2B7 in non-diabetic human liver microsomes assessed as reduction in enzyme-mediated mycophenolic acid acyl glucuronide formation by HPLC and LC-MS/MS method; type: ADME
[15] = molecular target: T1, UDP-glucuronosyltransferase 2B7; assay: Drug metabolism in diabetic human kidney microsomes assessed as UGT2B7-mediated mycophenolic acid phenolic 7-O-glucuronide formation per pmol protein by HPLC and LC-MS/MS method; type: ADME
[16] = molecular target: T1, UDP-glucuronosyltransferase 2B7; assay: Ratio of Vmax to Km in non-diabetic human kidney microsomes assessed as UGT2B7-mediated mycophenolic acid phenolic 7-O-glucuronide formation per pmol protein by HPLC and LC-MS/MS method; type: ADME
[17] = molecular target: T1, UDP-glucuronosyltransferase 2B7; assay: Drug metabolism in non-diabetic human liver microsomes assessed as UGT2B7-mediated mycophenolic acid acyl glucuronide formation per pmol protein by HPLC and LC-MS/MS method; type: ADME
[18] = molecular target: T1, UDP-glucuronosyltransferase 2B7; assay: Uncompetitive substrate inhibition of UGT2B7 in non-diabetic human kidney microsomes assessed as reduction in enzyme-mediated mycophenolic acid phenolic 7-O-glucuronide formation by HPLC and LC-MS/MS method; type: ADME
[19] = molecular target: T1, UDP-glucuronosyltransferase 2B7; assay: Uncompetitive substrate inhibition of UGT2B7 in diabetic human kidney microsomes assessed as reduction in enzyme-mediated mycophenolic acid phenolic 7-O-glucuronide formation by HPLC and LC-MS/MS method; type: ADME
[20] = molecular target: T1, UDP-glucuronosyltransferase 2B7; assay: Ratio of Vmax to Km in diabetic human kidney microsomes assessed as UGT2B7-mediated mycophenolic acid phenolic 7-O-glucuronide formation per pmol protein by HPLC and LC-MS/MS method; type: ADME
[21] = molecular target: T1, UDP-glucuronosyltransferase 2B7; assay: Ratio of Vmax to Km in non-diabetic human liver microsomes assessed as UGT2B7-mediated mycophenolic acid acyl glucuronide formation per pmol protein by HPLC and LC-MS/MS method; type: ADME
[22] = molecular target: T1, UDP-glucuronosyltransferase 2B7; assay: Uncompetitive substrate inhibition of UGT2B7 in diabetic human kidney microsomes assessed as reduction in enzyme-mediated mycophenolic acid acyl glucuronide formation by HPLC and LC-MS/MS method; type: ADME
[23] = molecular target: T1, UDP-glucuronosyltransferase 2B7; assay: Ratio of Vmax to Km in non-diabetic human kidney microsomes assessed as UGT2B7-mediated mycophenolic acid acyl glucuronide formation per pmol protein by HPLC and LC-MS/MS method; type: ADME
[24] = molecular target: T1, UDP-glucuronosyltransferase 2B7; assay: Ratio of Vmax to Km in diabetic human liver microsomes assessed as UGT2B7-mediated zidovudine glucuronide formation per pmol protein by HPLC and LC-MS/MS method; type: ADME
[25] = molecular target: T1, UDP-glucuronosyltransferase 2B7; details: microsomes
[26] = molecular target: T1, UDP-glucuronosyltransferase 2B7; assay: Drug metabolism in diabetic human kidney microsomes assessed as UGT2B7-mediated zidovudine glucuronide formation per pmol protein by HPLC and LC-MS/MS method; type: ADME
[27] = molecular target: T1, UDP-glucuronosyltransferase 2B7; details: microsomes; remark: listed apart in the source
[28] = molecular target: T1, UDP-glucuronosyltransferase 2B7; assay: Drug metabolism in diabetic human liver microsomes assessed as UGT2B7-mediated zidovudine glucuronide formation per pmol protein by HPLC and LC-MS/MS method; type: ADME
[29] = molecular target: T1, UDP-glucuronosyltransferase 2B7; details: microsomes; remark: listed apart in the source
[30] = molecular target: T1, UDP-glucuronosyltransferase 2B7; assay: Drug metabolism in non-diabetic human liver microsomes assessed as UGT2B7-mediated zidovudine glucuronide formation per pmol protein by HPLC and LC-MS/MS method; type: ADME
[31] = molecular target: T1, UDP-glucuronosyltransferase 2B7; assay: Drug metabolism in non-diabetic human kidney microsomes assessed as UGT2B7-mediated zidovudine glucuronide formation per pmol protein by HPLC and LC-MS/MS method; type: ADME
[32] = molecular target: T1, UDP-glucuronosyltransferase 2B7; details: microsomes; remark: listed apart in the source
[33] = substrate: COc1c(C)c2c(c(O)c1C/C=C(\C)CCC(=O)O)C(=O)OC2; assay: Drug metabolism in non-diabetic human kidney microsomes assessed as UGT2B7-mediated mycophenolic acid acyl glucuronide formation by HPLC and LC-MS/MS method; type: ADME
[34] = substrate: COc1c(C)c2c(c(O)c1C/C=C(\C)CCC(=O)O)C(=O)OC2; assay: Drug metabolism in diabetic human liver microsomes assessed as UGT2B7-mediated mycophenolic acid phenolic 7-O-glucuronide formation by HPLC and LC-MS/MS method; type: ADME
[35] = substrate: COc1c(C)c2c(c(O)c1C/C=C(\C)CCC(=O)O)C(=O)OC2; assay: Drug metabolism in non-diabetic human liver microsomes assessed as UGT2B7-mediated mycophenolic acid acyl glucuronide formation by HPLC and LC-MS/MS method; type: ADME
[36] = substrate: COc1c(C)c2c(c(O)c1C/C=C(\C)CCC(=O)O)C(=O)OC2; assay: Drug metabolism in non-diabetic human liver microsomes assessed as UGT2B7-mediated mycophenolic acid phenolic 7-O-glucuronide formation by HPLC and LC-MS/MS method; type: ADME
[37] = substrate: COc1c(C)c2c(c(O)c1C/C=C(\C)CCC(=O)O)C(=O)OC2; assay: Drug metabolism in diabetic human kidney microsomes assessed as UGT2B7-mediated mycophenolic acid phenolic 7-O-glucuronide formation by HPLC and LC-MS/MS method; type: ADME
[38] = substrate: COc1c(C)c2c(c(O)c1C/C=C(\C)CCC(=O)O)C(=O)OC2; assay: Drug metabolism in diabetic human kidney microsomes assessed as UGT2B7-mediated mycophenolic acid acyl glucuronide formation by HPLC and LC-MS/MS method; type: ADME
[39] = substrate: COc1c(C)c2c(c(O)c1C/C=C(\C)CCC(=O)O)C(=O)OC2; assay: Drug metabolism in non-diabetic human kidney microsomes assessed as UGT2B7-mediated mycophenolic acid phenolic 7-O-glucuronide formation by HPLC and LC-MS/MS method; type: ADME
[40] = substrate: COc1c(C)c2c(c(O)c1C/C=C(\C)CCC(=O)O)C(=O)OC2; assay: Drug metabolism in diabetic human liver microsomes assessed as UGT2B7-mediated mycophenolic acid acyl glucuronide formation by HPLC and LC-MS/MS method; type: ADME

Vmax [1]: 26.4 pmol/min
Ki [2]: 1500 nM
Vmax [3]: 15.7 pmol/min
Vmax/Km [4]: 22.9 nL/min
Vmax [5]: 0.76 pmol/min
Vmax/Km [6]: 0.12 nL/min
Ki [7]: 2000 nM
Vmax [8]: 10.6 pmol/min
Ki [9]: 1500 nM
Vmax/Km [10]: 31.3 nL/min
Ki [11]: 2000 nM
Vmax [12]: 0.43 pmol/min
Vmax/Km [13]: 1.51 nL/min
Ki [14]: 2000 nM
Vmax [15]: 38.8 pmol/min
Vmax/Km [16]: 27.6 nL/min
Vmax [17]: 2.43 pmol/min
Ki [18]: 1500 nM
Ki [19]: 1500 nM
Vmax/Km [20]: 34.1 nL/min
Vmax/Km [21]: 4.08 nL/min
Ki [22]: 2000 nM
Vmax/Km [23]: 0.41 nL/min
Molecule: COc1c(C)c2c(c(O)c1C/C=C(\C)CCC(=O)O)C(=O)OC2 [MYCOPHENOLIC ACID]

Vmax/Km [24]: 0.87 nL/min
Km [25]: 519 µM
Vmax [26]: 6.52 pmol/min
Km [27]: 307 µM
Vmax [28]: 274 pmol/min
Km [29]: 330 µM
Vmax [30]: 1214 pmol/min
Vmax [31]: 20.5 pmol/min
Km [32]: 519 µM
Molecule: Cc1cn([C@H]2C[C@H](N=[N+]=[N-])[C@@H](CO)O2)c(=O)[nH]c1=O [ZIDOVUDINE]

B1: UDP-glucuronosyltransferase 2B7 (Homo sapiens) (protein)
chain: T1 sequence (P16662 whole entry)
Km [33]: 3010 µM
Km [34]: 482 µM
Km [35]: 601 µM
Km [36]: 454 µM
Km [37]: 1160 µM
Km [38]: 3430 µM
Km [39]: 1010 µM
Km [40]: 502 µM
